In US20030220524A1, “Sulfur containing compounds” (priority 2000, published 2003):
“And” between values parts separate entries of the source, which are not always exact repeats. Equal entries are not always repeated. Where two headings read alike, the source gives them in different places. Values belong to the molecule of their own block, whether it stands above or below them.

What was measured:
Aspergillus flavus [1] = assay: Antifungal paper disk test, diameter of clear zone; type: cell-based; details: for zone of inhibition at 100 µg/disc: 100 μg/disk, read-out: Diameter (mm) of clear Zone A. flavus
Description: (§1) Sulfur compounds were tested for antifungal activity against pure cultures of Aspergillus niger and Aspergillus flavus supplied by Ward's Natural Science Ltd (St. Catharines, Ontario, Canada). They were maintained on Sabouraud Dextrose Agar.
(§2) For the test, 6 agar plugs (5 mm diameter) were cut from a 5-8 day old colony and homogenized in distilled, sterilized water (2 ml). A portion of this suspension (0.5 ml) was transferred aseptically to a Petri plate with Sabouraud Dextrose Agar (15 ml) and spread evenly over the entire surface. […] Each test compound was applied to the disks as a solution (50 mg compound/10 ml acetone). Control disks were treated with neat acetone (20 μl). Test plates with fungal homogenates and disks were incubated at 18-20° C. for 2 days. For each test four replicate plates were used. The diameter of the clear zone surrounding the disk was taken as the indicator of antifungal activity.

Aspergillus niger [2] = assay: Antifungal paper disk test, diameter of clear zone; type: cell-based; details: for zone of inhibition at 100 µg/disc: 100 μg/disk, read-out: Diameter (mm) of clear Zone A. niger
Description: as §1, §2

Aspergillus niger [3] = assay: Antifungal paper disk test, diameter of clear zone; type: cell-based; details: 0.25 μg/disk; Appl'n Solvent DMSO
Aspergillus flavus [4] = assay: Antifungal paper disk test, diameter of clear zone; type: cell-based; details: 0.25 μg/disk; Appl'n Solvent DMSO
[5] = tested on: Aspergillus niger and Aspergillus flavus; assay: Antifungal activity; type: cell-based; details: in words; dose not given
Description: as §1
For the test, 6 agar plugs (5 mm diameter) were cut from a 5-8 day old colony and homogenized in distilled, sterilized water (2 ml). A portion of this suspension (0.5 ml) was transferred aseptically to a Petri plate with Sabouraud Dextrose Agar (15 ml) and spread evenly over the entire surface. Each plate was supplied with four evenly spaced paper disks (7 mm, Whatman Number 1 filter paper) containing the test compound (0, 25, 50 and 100 μg respectively). Each test compound was applied to the disks as a solution (50 mg compound/10 ml acetone). Control disks were treated with neat acetone (20 μl). Test plates with fungal homogenates and disks were incubated at 18-20° C. for 2 days. For each test four replicate plates were used. The diameter of the clear zone surrounding the disk was taken as the indicator of antifungal activity.

AML-3 leukemic cell line [6] = assay: MTT assay; type: cell-based, human
Description: (§3) All cell lines were assayed as asynchronously growing cells. Leukemic cell lines, OCI-AML-2, OCI-AML-3 (referred to hereafter as AML-2 and AML-3, respectively), NB-4, KK, B1, G2, and W1 were cultured in alpha-minimal essential medium (α-MEM) (Princess Margaret Hospital Media Services) supplemented with 10% fetal bovine serum (FBS) (Sigma, St. Louis, Mo.). Non-transformed, diploid fibroblast lines WI38 and IMR90, were cultured in α-MEM and MEM F-15, respectively supplemented with 10% FBS. Media for IMR90 cells was also supplemented with 1.5 g/L bicarbonate and 1 mM pyruvate. Breast tumour cell lines, MDA-231, SK-BR-3, MCF-7, ZR-751, and melanoma tumour cell lines, WM9, WM983, WM793, 1232, were grown in α-MEM supplemented with 10% fetal bovine serum. Prostate tumour cell lines, DU145 and PC-3, were grown in RPMI 1640 media supplemented with 10% FBS. All cell lines were cultured in the presence of penicillin/streptomycin. Mononucleated cells were isolated from normal bone marrow using Ficoll hypaque and then T-cell depleted. T-cell depletion was performed by incubating the mononucleated bone marrow cells in α-MEM at a concentration of 2×10^7 cells/mL with 10% absor FBS and 10% (v/v) sheep red blood cells for 4 to 16 h. Absor FBS was prepared beforehand by heating FBS at 56° C. for 1 h, incubating with sheep red blood cells at 0.5% (v/v) for 1 h and then filtering the FBS with a […]. The T-cell depleted, mononucleated cells were recovered using Ficoll hypaque and were maintained in α-MEM supplemented with 20% FBS and 10% 5637 ? nditioned media. 5637 conditioned media ? s previously harvested from confluent 5637 cells after a 3 day incubation. Normal bone marrow from bone marrow transplant donor was collected following informed consent according to institutional guidelines.
(§4) Approximately 20 mg of each compound was dissolved in 5 mL of ACS grade acetone (Sigma) using a 5 mL volumetric flask. Stock solutions of the compounds were stored in the dark at −20° C. Compounds were diluted prior to each experiment.
(§5) Adherent cells were seeded at 67×10^3 cells/mL in a 96 well plate (Falcon, Mississauga, Ontario) the day prior to exposure to compound. Suspension cells were seeded at 27×10^4 cells/mL in a 96 well plate the day of exposure to compound. Mononucleated, T-cell depleted normal bone marrow cells were seeded at 67×10^4 cells/mL in a 96 well plate the day of exposure to compound. Compounds and solvent control were added to cells and assayed in triplicate or sextuplet. Following 48 h of incubation at 37° C. with 5% CO2, 40 μL of a 5 mg/mL solution of 3-[4,5-dimethylthiazol-2-yl]-2,5-diphenyltetrazolium bromide (MTT) substrate (Sigma) in Dulbecco's phosphate-buffered saline (D-PBS) was added. After 4 h of incubation at 37° C. with 5% CO2, the resulting violet formazan precipitate was solubilized by the addition of 80 μL of a 0.01 M HCI, 10% sodium dodecyl sulfate (SDS; Sigma) solution overnight at 37° C. with 5% CO2. The plates were then analyzed using the BioRad Benchmark Microplate Reader (BioRad Laboratories, Hercules, Calif.) at 570 nm to determine the optical density of the samples. MTT data was analyzed using Prism 3.0 (GraphPad Software, Inc., San Diego, Calif.) by the Chou-Talalay method. MTT graphs shown are a representative experiment.
(§6) Adherent cells were seeded at 67×10^3 cells/mL in a 96 well plate (Falcon, Mississauga, Ontario) the day prior to exposure to compound. Suspension cells were seeded at 27×10^4 cells/mL in a 96 well plate the day of exposure to compound. Mononucleated, T-cell depleted normal bone marrow cells were seeded at 67×10^4 cells/mL in a 96 well plate the day of exposure to compound. Compounds and solvent control were added to cells and assayed in triplicate or sextuplet. […]

KK leukemic cell line [7] = assay: MTT assay; type: cell-based, human; details: KK, 48 h, read-out: MTT50
Description: as §3, §4, §5, §6

[8] = tested on: WI38 non-transformed diploid fibroblasts; assay: MTT assay; type: cell-based, human; details: for IC50: WI38 (normal), 48 h, read-out: MTT50
Description: as §3, §4, §5, §6

[9] = tested on: Normal bone marrow (mononucleated, T-cell depleted); assay: MTT assay; type: cell-based; details: Normal bone marrow, 48 h, read-out: MTT50
Description: as §3, §4, §5, §6

AML-3 leukemic cell line [10] = assay: Fixed propidium iodide staining, flow cytometry; type: cell-based, human; details: dose 129.6 uM (ug/mL), 48 h
Description: (§7) Adherent cell lines were plated at 35×10^4 cells/60 cm^2 dish the day before exposure to compound. Suspension cells were seeded at 25×10^4 cells/mL in a 6 well dish (Falcon) the day of exposure to compound. Mononucleated, T-cell depleted normal bone marrow cells were seeded at 50×10^4 cells/mL in a 6 well dish the day of exposure to compound. Cells were exposed to solvent control or approximate MTT50 and MTT30 concentrations of the compound. After 48 h of exposure to the compound, cells were harvested, fixed in 80% ethanol for 1 h on ice and labeled with 50 μg/mL propidium iodide (Sigma). Approximately 10^6 cells were analyzed using a XL-MCL flow cytometer (Coulter Corporation, Miami, Fla.) and a FACScalibar cytometer (Becton Dickinson, San Jose, Calif.). Profiles shown are a representative.
as §7, with “cm2” for “cm^2”, “concentrations.” for “concentrations of the compound.”, “representative. Cell viability counts and Pi staining were performed as previously described (Dimitroulakos, J, Nohynek, D, Backway, K L, Hedley, D W, Yeger, H, Freedman, M H, Minden, M D and Penn, L Z: Increased sensitivity of acute myeloid leukemias to lovastatin-induced apoptosis: A potential therapeutic approach. Blood 93: 1308-18, 1999).” for “representative.”

KK leukemic cell line [11] = assay: Fixed propidium iodide staining, flow cytometry; type: cell-based, human; details: dose 129.6 uM (ug/mL), 48 h
Description: as §7
as §7, with “cm2” for “cm^2”, “concentrations.” for “concentrations of the compound.”, “representative. Cell viability counts and Pi staining were performed as previously described (Dimitroulakos, J, Nohynek, D, Backway, K L, Hedley, D W, Yeger, H, Freedman, M H, Minden, M D and Penn, L Z: Increased sensitivity of acute myeloid leukemias to lovastatin-induced apoptosis: A potential therapeutic approach. Blood 93: 1308-18, 1999).” for “representative.”

B1 leukemic cell line = assay: MTT assay; type: cell-based, human; details: B1, 48 h, read-out: MTT50
Description: as §3, §4, §5, §6

G2 leukemic cell line = assay: MTT assay; type: cell-based, human; details: 48 h, read-out: MTT50
Description: as §3, §4, §5, §6

NB-4 leukemic cell line = assay: MTT assay; type: cell-based, human; details: NB-4, 48 h, read-out: MTT50
Description: as §3, §4, §5, §6

W1 leukemic cell line = assay: MTT assay; type: cell-based, human; details: 48 h, read-out: MTT50
Description: as §3, §4, §5, §6

[12] = tested on: Aspergillus niger and Aspergillus flavus; assay: Antifungal activity; type: cell-based; details: in words; 10 μg/disk
[13] = 0.25 μg/disk, Appl'n Solvent Acetone
[14] = Homo sapiens, AML3, 48 h, AML-3, read-out: MTT50

Structure (SMILES): CCC(=O)OCSSCOC(=O)CC [(C2H5C(O)OCH2S)2, 2,3-dithiabutane-1,4-dipropionate]
Diameter (mm) of clear Zone A. flavus (Aspergillus flavus [1]; [13]): 6.7 mm
Diameter (mm) of clear Zone A. niger (Aspergillus niger [2]; [13]): 3.6 mm
Diameter (mm) of clear Zone A. niger (Aspergillus niger [3]): 8.0 mm
Diameter (mm) of clear Zone A. flavus (Aspergillus flavus [4]): 6.1 mm

Structure (SMILES): C[C@@H]1[C@H](O)[C@@H](C)/C=C/C=C/C=C/C=C/C=C/C=C/C=C/[C@H](O[C@@H]2O[C@H](C)[C@@H](O)[C@H](N)[C@@H]2O)C[C@@H]2O[C@](O)(C[C@@H](O)C[C@@H](O)[C@H](O)CC[C@@H](O)C[C@@H](O)CC(=O)O[C@H]1C)C[C@H](O)[C@H]2C(=O)O [Amphotericin B, reference compound]
Antifungal activity [5]: most potent of the 3 commercial antifungals tested
Diameter (mm) of clear Zone A. niger (Aspergillus niger [3]): 4.2 mm
Diameter (mm) of clear Zone A. flavus (Aspergillus flavus [4]): 4.1 mm

Structure (SMILES): CS(=O)(=O)Sc1ccccc1 [L, Phenyl Methanethiosulfonate]
Diameter (mm) of clear Zone A. flavus (Aspergillus flavus [1]; 25 μg/disk, acetone): 3.7 mm
Diameter (mm) of clear Zone A. niger (Aspergillus niger [2]; 25 μg/disk, acetone): 0 mm
IC50 (AML-3 leukemic cell line [6]; AML-3, 48 h, read-out: MTT50): 7.46 µM
IC50 (B1 leukemic cell line): 6.34 µM
IC50 (G2 leukemic cell line): 3.8 µM
IC50 (KK leukemic cell line [7]): 6.3 µM
IC50 (W1 leukemic cell line): 7.26 µM
IC50 [9]: 44.2 µM

Structure (SMILES): COC(=O)CSSCC(=O)OC [O, dimethyl 3,4-dithiaadipate]
zone of inhibition at 100 µg/disc (Aspergillus flavus [1]; Aspergillus flavus, acetone): 0 mm
zone of inhibition at 100 µg/disc (Aspergillus niger [2]; Aspergillus niger, acetone): 0 mm
IC50 (AML-3 leukemic cell line [6]; AML-3, 48 h, read-out: MTT50): 44.1 µM
IC50 (AML-3 leukemic cell line [6]; [14]): 55.8 µM
IC50 (B1 leukemic cell line; Homo sapiens): 57.4 µM
IC50 (KK leukemic cell line [7]; Homo sapiens): 96.9 µM
IC50 (NB-4 leukemic cell line; Homo sapiens): 62.9 µM
IC50 ([8]; Homo sapiens, WI-38, 48 h): 73.9 µM
IC50 ([9]; T-cell): > 100 µM

Structure (SMILES): CSSc1ccccc1[N+](=O)[O-] [o-O2N(C6H4)SSCH3, methyl o-nitrophenyl disulphide]
zone of inhibition at 10 µg/disc (Aspergillus flavus [1]; Aspergillus flavus, 10 μg/disk, acetone): 1.9 mm
zone of inhibition at 10 µg/disc (Aspergillus niger [2]; Aspergillus niger, 10 μg/disk, acetone): 2.8 mm
Antifungal activity / fungitoxicity [12]: pronounced toxicity

Now from value to molecule, other results behind:

melting point: 34.8 to 35.3 °C
Structure (SMILES): CSSCCCS(C)(=O)=O [CH3SO2CH2CH2CH2SSCH3, 2,3,7-trithiaoctane 7,7-dioxide]
zone of inhibition at 100 µg/disc (Aspergillus flavus [1]; Aspergillus flavus, acetone): 0 mm
zone of inhibition at 100 µg/disc (Aspergillus niger [2]; Aspergillus niger, acetone): 0 mm

IC50 (AML-3 leukemic cell line [6]; [14]): > 162 µM
IC50 (KK leukemic cell line [7]; Homo sapiens): > 162 µM
Structure (SMILES): CSCSCSC [J, 2,4,6-trithiaheptane]
zone of inhibition at 100 µg/disc (Aspergillus flavus [1]; Aspergillus flavus, acetone): 0 mm
zone of inhibition at 100 µg/disc (Aspergillus niger [2]; Aspergillus niger, acetone): 0 mm
IC50 ([8]; Homo sapiens, WI-38, 48 h): > 162 µM
Viability of non-transformed human WI38 fibroblasts following exposure ([8]; in words): not affected
IC50 ([9]; T-cell): > 162 µM
% pre-G1 (Fixed PI) (AML-3 leukemic cell line [10]): 0.2%
% pre-G1 (Fixed PI) (KK leukemic cell line [11]): 2.6%
Antifungal activity [5]: do not possess antiproliferative activity on either fungal or mammalian cells

IC50 (AML-3 leukemic cell line [6]; AML-3, 48 h, read-out: MTT50): 4.6 µM
IC50 (B1 leukemic cell line): 6.07 µM
IC50 (G2 leukemic cell line): 6.61 µM and 5.8 µM
IC50 (KK leukemic cell line [7]): 6.6 µM
IC50 (NB-4 leukemic cell line): 6.36 µM and 7.8 µM
Structure (SMILES): CCCCCSSCS(C)(=O)=O [K]
IC50 [8]: 19 µM
IC50 [9]: 22 µM
